Laboratory results published in US10160726B2, “Quinolone derivatives as antibacterials” (priority 2014, dated 2018).
Values after ≈ are worked out from the molar mass of the structure shown.

Legend:
Type in all cases: cell-based
[1] = system: P. aeruginosa NB52023-CDK0006 (gyrA T83I, parC S87L); assay: microbe, parasite or virus in culture; settings: Pseudomonas aeruginosa, 20 h, read-out: Antibacterial activity (MIC) NB52023-CDK0006
[2] = system: P. aeruginosa NB52023 (efflux deficient K1542, ΔmexX ΔmexB); assay: microbe, parasite or virus in culture; settings: Pseudomonas aeruginosa, 20 h, read-out: Antibacterial activity (MIC) NB52023
[3] = system: S. aureus ATCC 29213 (NB01001); assay: MIC, broth microdilution (CLSI); settings: Staphylococcus aureus, ATCC29213; S. aureus ATCC 29213; 35° C., 20 hours; read-out: Antibacterial activity (MIC) NB01001
[4] = system: S. aureus NB01006-AVR005 (gyrA S84L, grlA S80F, grlB E471K); assay: microbe, parasite or virus in culture; settings: Staphylococcus aureus, 20 h, read-out: Antibacterial activity (MIC) NB01006-AVR005
[5] = system: E. coli NB27177 (efflux deficient CGSC 11430, ΔtolC732::kan); assay: microbe, parasite or virus in culture; settings: Escherichia coli, 20 h, read-out: Antibacterial activity (MIC) NB27177
[6] = system: E. coli ATCC 25922 (NB27001); assay: MIC, broth microdilution (CLSI); settings: Escherichia coli, ATCC25922; E. coli ATCC 25922; 35° C., 20 hours; read-out: Antibacterial activity (MIC) NB27001
[7] = system: P. aeruginosa NB52019 (wild-type PAO1); assay: MIC, broth microdilution (CLSI); settings: Pseudomonas aeruginosa, PAO1, 20 h; read-out: Antibacterial activity (MIC) NB52019

| SMILES | MIC [1] [µg/mL] | MIC [2] [µg/mL] | MIC [3] [µg/mL] | MIC [4] [µg/mL] | MIC [5] [µg/mL] | MIC [6] [µg/mL] | MIC [7] [µg/mL] |
| --- | --- | --- | --- | --- | --- | --- | --- |
| Cc1c(N2CC[C@@H]([C@H](C)N)C2)c(F)cc2c(OCCN)cc(=O)n(C3CC3)c12 [Example 51, 4-(2-aminoethoxy)-7-((R)-3-((S)-1-aminoethyl)pyrrolidin-1-yl)-1-cyclopropyl-6-fluoro-8-methylquinolin-2(1H)-one] | 2 (≈ 5.15 µM) | 2 (≈ 5.15 µM) | 0.5 (≈ 1.29 µM) | 0.5 (≈ 1.29 µM) | 0.06 (≈ 0.154 µM) | 2 (≈ 5.15 µM) | 4 (≈ 10.3 µM) |
| Cc1c(N2CC[C@@H]([C@H](C)N)C2)c(F)cc2c(OCCNC(=N)N)cc(=O)n(C3CC3)c12 [Example 53, 1-(2-((7-((R)-3-((S)-1-aminoethyl)pyrrolidin-1-yl)-1-cyclopropyl-6-fluoro-8-methyl-2-oxo-1,2-dihydroquinolin-4-yl)oxy)ethyl)guanidine] | 4 (≈ 9.29 µM) | 4 (≈ 9.29 µM) | 0.5 (≈ 1.16 µM) | 0.5 (≈ 1.16 µM) | 0.125 (≈ 0.29 µM) | 4 (≈ 9.29 µM) | 16 (≈ 37.2 µM) |
| CC(=O)NCCOc1cc(=O)n(C2CC2)c2c(C)c(N3CC[C@@H]([C@H](C)N)C3)c(F)cc12 [Example 54, N-(2-((7-((R)-3-((S)-1-aminoethyl)pyrrolidin-1-yl)-1-cyclopropyl-6-fluoro-8-methyl-2-oxo-1,2-dihydroquinolin-4-yl)oxy)ethyl)acetamide] | > 32 | > 32 | 8 (≈ 18.6 µM) | 4 (≈ 9.29 µM) | 4 (≈ 9.29 µM) | 32 (≈ 74.3 µM) | 32 (≈ 74.3 µM) |
| Cc1c(N2CC[C@H](O)C2)c(F)cc2c(OCCN(C)C)cc(=O)n(C3CC3)c12 [Example 55, (S)-1-cyclopropyl-4-(2-(dimethylamino)ethoxy)-6-fluoro-7-(3-hydroxypyrrolidin-1-yl)-8-methylquinolin-2(1H)-one] | 32 (≈ 82.2 µM) | 32 (≈ 82.2 µM) | 0.5 (≈ 1.28 µM) | 0.5 (≈ 1.28 µM) | 0.125 (≈ 0.321 µM) | 8 (≈ 20.5 µM) | > 32 |
| Cc1c(N2CC[C@@H]([C@H](C)N)C2)c(F)cc2c(OCC(N)=O)cc(=O)n(C3CC3)c12 [Example 56, 2-((7-((R)-3-((S)-1-aminoethyl)pyrrolidin-1-yl)-1-cyclopropyl-6-fluoro-8-methyl-2-oxo-1,2-dihydroquinolin-4-yl)oxy)acetamide] | > 32 | 16 (≈ 39.8 µM) | 4 (≈ 9.94 µM) | 4 (≈ 9.94 µM) | 2 (≈ 4.97 µM) | 32 (≈ 79.5 µM) | > 32 |
| Cc1c(N2CC[C@@H]([C@H](C)N)C2)c(F)cc2c(OCCCC#N)cc(=O)n(C3CC3)c12 [Example 57, 4-((7-((R)-3-((S)-1-aminoethyl)pyrrolidin-1-yl)-1-cyclopropyl-6-fluoro-8-methyl-2-oxo-1,2-dihydroquinolin-4-yl)oxy)butanenitrile] | > 32 | 16 (≈ 38.8 µM) | 0.25 (≈ 0.606 µM) | 0.25 (≈ 0.606 µM) | 0.25 (≈ 0.606 µM) | 32 (≈ 77.6 µM) | > 32 |
| Cc1c(N2CC[C@@H]([C@H](C)N)C2)c(F)cc2c(OCCC/C(N)=N\O)cc(=O)n(C3CC3)c12 [Example 58, 4-((7-((R)-3-((S)-1-aminoethyl)pyrrolidin-1-yl)-1-cyclopropyl-6-fluoro-8-methyl-2-oxo-1,2-dihydroquinolin-4-yl)oxy)-N′-hydroxybutanimidamide] | 32 (≈ 71.8 µM) | 32 (≈ 71.8 µM) | 4 (≈ 8.98 µM) | 2 (≈ 4.49 µM) | 1 (≈ 2.24 µM) | 32 (≈ 71.8 µM) | > 32 |
| Cc1c(N2CC[C@@H]([C@H](C)N)C2)c(F)cc2c(OCCCC(=O)NO)cc(=O)n(C3CC3)c12 [Example 60, 4-((7-((R)-3-((S)-1-aminoethyl)pyrrolidin-1-yl)-1-cyclopropyl-6-fluoro-8-methyl-2-oxo-1,2-dihydroquinolin-4-yl)oxy)-N-hydroxybutanamide] | > 32 | > 32 | 8 (≈ 17.9 µM) | 4 (≈ 8.96 µM) | 1 (≈ 2.24 µM) | 32 (≈ 71.7 µM) | > 32 |
